This is an account of results in patent US6054457A, “Benzamide derivatives and their use as vasopressin antagonists” (Fujisawa Pharmaceutical Co., Ltd., priority 1995, dated 2000).

Experiment [1] concerns the target Vasopressin 1 (V1) receptor (Homo sapiens, UniProt P37288). Description: Vasopressin 1 (V1) Receptor Binding. The settings on record: competition with 1.5 nM 3H-vasopressin, platelet membrane preparation from blood of normal subjects, 15 minutes at 30° C.
In a further experiment the target is human V2 receptor (Homo sapiens, UniProt P30518). As to the kind of experiment: Vasopressin 2 (V2) Receptor Binding. The conditions noted are these: competition with 0.5 nM 3H-vasopressin, membranes of CHO cells expressing human V2 receptor, 2 hours at 22° C.
Sequence of human V2 receptor (P30518 whole entry): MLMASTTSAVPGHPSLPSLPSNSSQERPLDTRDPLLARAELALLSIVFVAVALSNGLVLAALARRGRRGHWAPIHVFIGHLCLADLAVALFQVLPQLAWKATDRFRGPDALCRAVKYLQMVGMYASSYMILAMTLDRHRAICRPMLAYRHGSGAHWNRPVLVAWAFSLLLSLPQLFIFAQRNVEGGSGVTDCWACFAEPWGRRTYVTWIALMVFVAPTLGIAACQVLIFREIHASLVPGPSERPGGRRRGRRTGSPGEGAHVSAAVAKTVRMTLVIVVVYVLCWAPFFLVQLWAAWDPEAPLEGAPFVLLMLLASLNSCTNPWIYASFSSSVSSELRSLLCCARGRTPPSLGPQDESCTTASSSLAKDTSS

Where a name gives a salt, the structure may show the parent alone.

Sequence of Vasopressin 1 (V1) receptor (P37288 whole entry): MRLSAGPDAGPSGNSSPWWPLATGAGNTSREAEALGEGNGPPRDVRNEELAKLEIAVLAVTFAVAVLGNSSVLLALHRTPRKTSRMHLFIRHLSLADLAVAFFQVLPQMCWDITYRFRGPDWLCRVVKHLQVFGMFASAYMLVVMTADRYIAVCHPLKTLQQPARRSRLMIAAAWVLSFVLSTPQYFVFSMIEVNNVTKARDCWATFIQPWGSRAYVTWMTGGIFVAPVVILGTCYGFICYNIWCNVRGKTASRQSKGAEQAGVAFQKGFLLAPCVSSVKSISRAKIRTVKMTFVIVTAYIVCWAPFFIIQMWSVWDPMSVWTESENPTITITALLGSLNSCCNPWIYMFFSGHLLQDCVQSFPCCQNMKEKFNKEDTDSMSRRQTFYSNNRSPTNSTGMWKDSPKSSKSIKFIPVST

In general, IC50 refers to the concentration at which inhibition is half-maximal. Read a low IC50 as higher potency. Consider `Cc1ccc(N(C)C(=O)c2ccc(NC(=O)c3ccccc3N)cc2)c(OCCCCCC(=O)O)c1` [5-2), 4-(2-Aminobenzoyl)amino-N-methyl-N-[2-(5-carboxypent-1-yloxy)-4-methylphenyl]benzamide], for which the IC50 in experiment [1] stood at 51 nM; at human V2 receptor it was 1300 nM.
For the compound `CN1CCN(C(=O)CCCCCOc2ccccc2N(C)C(=O)c2ccc(NC(=O)c3ccccc3OCCCN)cc2)CC1` [Example 16, 4-[2-[(3-aminoprop-1-yl)oxy]benzoyl]amino-N-methyl-N-[2-[5-(4-methylpiperazin-1-yl)carbonylpent-1-yloxy]phenyl]benzamide dihydrochloride], the IC50 came out at 14 nM in experiment [1] and 1400 nM at human V2 receptor.
In the case of `CCOC(=O)CCCCCOc1cc(C)ccc1N(C)C(=O)c1ccc(NC(=O)c2ccccc2OCCCN)cc1` [17-20), 4-[2-(3-Aminoprop-1-yl)oxybenzoyl]amino-N-[2-(5-ethoxycarbonylpent-1-yl)oxy-4-methyl]phenyl-N-methylbenzamide hydrochoiride], the results for the IC50 (in experiment [1]; on human V2 receptor) were 31 nM and 1300 nM, respectively.
